Molecular target: T1, human glycogen phosphorylase a (Homo sapiens, UniProt P06737)
T1 sequence (P06737 1-847): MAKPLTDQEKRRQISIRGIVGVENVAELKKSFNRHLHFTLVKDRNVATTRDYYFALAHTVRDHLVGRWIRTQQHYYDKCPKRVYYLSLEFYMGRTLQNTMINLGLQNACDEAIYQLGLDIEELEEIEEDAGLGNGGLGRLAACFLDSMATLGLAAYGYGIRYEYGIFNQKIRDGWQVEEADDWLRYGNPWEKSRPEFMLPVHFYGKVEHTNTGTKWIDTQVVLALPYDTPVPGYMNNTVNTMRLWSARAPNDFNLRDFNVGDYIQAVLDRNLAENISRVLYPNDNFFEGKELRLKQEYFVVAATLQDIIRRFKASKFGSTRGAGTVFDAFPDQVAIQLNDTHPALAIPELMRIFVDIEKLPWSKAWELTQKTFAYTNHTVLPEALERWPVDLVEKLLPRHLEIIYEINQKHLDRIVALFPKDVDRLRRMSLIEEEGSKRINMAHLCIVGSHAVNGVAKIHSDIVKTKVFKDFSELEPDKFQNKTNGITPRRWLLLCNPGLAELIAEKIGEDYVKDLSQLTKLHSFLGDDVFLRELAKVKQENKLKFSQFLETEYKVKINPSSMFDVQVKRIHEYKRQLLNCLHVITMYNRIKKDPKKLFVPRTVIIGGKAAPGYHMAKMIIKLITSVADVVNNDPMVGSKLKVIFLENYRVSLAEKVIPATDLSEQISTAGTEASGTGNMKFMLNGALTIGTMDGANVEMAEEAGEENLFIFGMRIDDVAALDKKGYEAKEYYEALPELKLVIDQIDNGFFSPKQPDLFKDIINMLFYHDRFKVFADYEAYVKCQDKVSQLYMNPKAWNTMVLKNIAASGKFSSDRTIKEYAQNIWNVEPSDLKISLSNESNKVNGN
Assay: Glycogen phosphorylase a activity test
Assay type: biochemical
Conditions: 10 μM test substance; GPa measured in reverse direction (glycogen synthesis from glucose 1-phosphate)
Protocol: Glycogen Phophorylase a Activity Test
The effect of compounds on the activity of the active form of glycogen phosphorylase (GPa) was measured in the reverse direction by monitoring the synthesis of glycogen from glucose 1-phosphate by determining the release of inorganic phosphate. All reactions were carried out as duplicate determinations in 96-well microtiter plates (half area plates, Costar No. 3696), and the change in absorption as a consequence of the formation of the reaction product was measured at the wavelength specified below in a Multiskan Ascent Elisa Reader (Lab Systems, Finland).
In order to measure the GPa enzyme activity in the reverse direction, the conversion of glucose 1-phosphate to glycogen and inorganic phosphate was measured by the general method of Engers et al. (Engers HD, Shechosky S, Madsen NB, Can J Biochem 1970 July;48(7):746–754) with the following modifications: human glycogen phosphorylase a (for example containing 0.76 mg of protein/ml (Aventis Pharma Deutschland GmbH), dissolved in buffer solution E (25 mM P-glycerophosphate, pH 7.0, 1 mM EDTA and 1 mM dithiotreitol) was diluted to a concentration of 10 μg of protein/ml with buffer T (50 mM Hepes, pH 7.0, 100 mM KCl, 2.5 mM EDTA, 2.5 mM MgCl2.6H2O) and addition of 5 mg/ml of glycogen. Test substances were prepared as a 10 mM solution in DMSO and diluted to 50 μM with buffer solution T. To 10 μl of this solution were added 10 μl of 37.5 mM glucose dissolved in buffer solution T and 5 mg/ml of glycogen, and also 10 μl of a solution of human glycogen phosphorylase a (10 μg of protein/ml) and 20 μl of 2.5 mM glucose 1-phosphate. The base value of the activity of glycogen phosphorylase a in the absence of test substance was determined by adding 10 μl of buffer solution T (0.1% DMSO). The mixture was incubated at room temperature for 40 minutes and the released inorganic phosphate was determined by means of the general method of Drueckes et al. (Drueckes P, Schinzel R, Palm D, Anal Biochem 1995 Sep. 1;230(1):173–177) with the following modifications: 50 μl of a stop solution of 7.3 mM of ammonium molybdate, 10.9 mM of zinc acetate, 3.6% of ascorbic acid, 0.9% of SDS are added to 50 μl of the enzyme mixture. After 60 minutes of incubation at 45° C., the absorption was measured at 820 nm. To determine the background absorption, the stop solution was added immediately after the addition of the glucose 1-phosphate solution in a separate reaction.

% Inhibition at 10 μM [%] | inhibition at 10 µM [%] | SMILES
100 |  | COC(=O)CC(=O)Nc1ccc(OC(F)(F)F)c(NC(=O)NC(=O)c2cc(F)c(F)cc2Cl)c1 [Example 66]
101 |  | COC(=O)CCC(=O)Nc1ccc(OC(F)(F)F)c(NC(=O)NC(=O)c2cc(F)c(F)cc2Cl)c1 [Example 67]
101 |  | O=C(NC(=O)c1cc(F)c(F)cc1Cl)Nc1cc(NC(=O)C(=O)O)ccc1OC(F)(F)F [Example 68]
100 |  | O=C(O)CC(=O)Nc1ccc(OC(F)(F)F)c(NC(=O)NC(=O)c2cc(F)c(F)cc2Cl)c1 [Example 69]
99 |  | O=C(O)CCC(=O)Nc1ccc(OC(F)(F)F)c(NC(=O)NC(=O)c2cc(F)c(F)cc2Cl)c1 [Example 70]
97 |  | CC(=O)Nc1ccc(N(C)C)c(NC(=O)NC(=O)c2cc(F)c(F)cc2Cl)c1 [Example 71]
96 |  | CCN(CC)c1ccc(NC(C)=O)cc1NC(=O)NC(=O)c1cc(F)c(F)cc1Cl [Example 72]
 | 97 | CC(=O)Nc1ccc(N2CCCC2)c(NC(=O)NC(=O)c2cc(F)c(F)cc2Cl)c1 [Example 73, N-{3-[3-(2-Chloro-4,5-difluorobenzoyl)ureido]-4-pyrrolidin-1-ylphenyl}acetamide]
98 |  | COC(=O)CC(=O)Nc1ccc(N(C)C)c(NC(=O)NC(=O)c2cc(F)c(F)cc2Cl)c1 [Example 74]
100 |  | COC(=O)CC(=O)Nc1ccc(N2CCCC2)c(NC(=O)NC(=O)c2cc(F)c(F)cc2Cl)c1 [Example 75]
99 |  | CN(C)c1ccc(NC(=O)CC(=O)O)cc1NC(=O)NC(=O)c1cc(F)c(F)cc1Cl [Example 76]
98 |  | O=C(O)CC(=O)Nc1ccc(N2CCCC2)c(NC(=O)NC(=O)c2cc(F)c(F)cc2Cl)c1 [Example 77]
86 |  | O=C(O)CCC(=O)Nc1cccc(NC(=O)NC(=O)c2ccc(Cl)cc2Cl)c1 [Example 78]
80 |  | NCCCC(=O)Nc1cccc(NC(=O)NC(=O)c2ccc(Cl)cc2Cl)c1 [Example 79]
98 |  | CC(=O)Nc1ccc(Cl)c(NC(=O)NC(=O)c2ccc(Cl)cc2Cl)c1.O=C(O)C(F)(F)F [Example 80]
97 |  | O=C(O)CCC(=O)Nc1ccc(Cl)c(NC(=O)NC(=O)c2ccc(Cl)cc2Cl)c1 [Example 81]
102 |  | COc1ccc(NC(C)=O)cc1NC(=O)NC(=O)c1ccc(Cl)cc1Cl [Example 82]
103 |  | COc1ccc(NC(=O)CCC(=O)O)cc1NC(=O)NC(=O)c1ccc(Cl)cc1Cl [Example 83]
100 |  | O=C(O)CCC(=O)Nc1ccc(Cl)c(NC(=O)NC(=O)c2cc(F)c(F)cc2Cl)c1 [Example 84]
98 |  | CC(=O)Nc1ccc(Cl)c(NC(=O)NC(=O)c2cc(F)c(F)cc2Cl)c1 [Example 85]

Second part, the compound before the results:

SMILES | % Inhibition at 10 μM [%] | inhibition at 10 µM [%]
COc1ccc(NC(=O)c2ccccc2OC)cc1NC(=O)NC(=O)c1cc(F)c(F)cc1Cl [Example 34] | 97 | 
CC=CC(=O)Nc1ccc(OC)c(NC(=O)NC(=O)c2cc(F)c(F)cc2Cl)c1 [Example 35] | 99 | 
COc1ccc(NC(=O)c2ccccc2F)cc1NC(=O)NC(=O)c1cc(F)c(F)cc1Cl [Example 36] | 101 | 
COc1ccc(NC(=O)Cc2ccccc2)cc1NC(=O)NC(=O)c1cc(F)c(F)cc1Cl [Example 37] | 101 | 
COc1ccc2oc(C(=O)Nc3ccc(OC)c(NC(=O)NC(=O)c4cc(F)c(F)cc4Cl)c3)cc2c1 [Example 38] | 102 | 
COc1ccc(NC(=O)c2cc3cc(Cl)ccc3o2)cc1NC(=O)NC(=O)c1cc(F)c(F)cc1Cl [Example 39] | 101 | 
COc1ccc(NC(=O)c2ccc(F)cc2)cc1NC(=O)NC(=O)c1cc(F)c(F)cc1Cl [Example 40] | 98 | 
COc1cccc(CC(=O)Nc2ccc(OC)c(NC(=O)NC(=O)c3cc(F)c(F)cc3Cl)c2)c1 [Example 41] | 104 | 
COc1ccc(NC(=O)C(=O)c2c[nH]c3ccccc23)cc1NC(=O)NC(=O)c1cc(F)c(F)cc1Cl [Example 42] | 83 | 
COc1ccc(NC(=O)C2CCC2)cc1NC(=O)NC(=O)c1cc(F)c(F)cc1Cl [Example 44] | 101 | 
COc1ccc(NC(=O)c2cccc(F)c2)cc1NC(=O)NC(=O)c1cc(F)c(F)cc1Cl [Example 45] | 97 | 
C=CCCC(=O)Nc1ccc(OC)c(NC(=O)NC(=O)c2cc(F)c(F)cc2Cl)c1 [Example 46] | 102 | 
CCCCC(=O)Nc1ccc(OC)c(NC(=O)NC(=O)c2cc(F)c(F)cc2Cl)c1 [Example 47] | 105 | 
CCOC(=O)CCC(=O)Nc1ccc(OC)c(NC(=O)NC(=O)c2cc(F)c(F)cc2Cl)c1 [Example 48] | 97 | 
COc1ccc(NC(=O)COC(C)=O)cc1NC(=O)NC(=O)c1cc(F)c(F)cc1Cl [Example 49] | 99 | 
COc1ccc(NC(=O)c2ccccc2OC(F)(F)F)cc1NC(=O)NC(=O)c1cc(F)c(F)cc1Cl [Example 51] | 92 | 
COc1ccc(NC(=O)CN)cc1NC(=O)NC(=O)c1cc(F)c(F)cc1Cl [Example 52] | 101 | 
COc1ccc(NC(=O)CCCN)cc1NC(=O)NC(=O)c1cc(F)c(F)cc1Cl [Example 53] | 100 | 
CNCC(=O)Nc1ccc(OC)c(NC(=O)NC(=O)c2cc(F)c(F)cc2Cl)c1 [Example 54] | 100 | 
COc1ccc(NC(=O)CCN)cc1NC(=O)NC(=O)c1cc(F)c(F)cc1Cl [Example 55] | 100 | 
C#CCCC(=O)Nc1ccc(OC)c(NC(=O)NC(=O)c2cc(F)c(F)cc2Cl)c1 [Example 57] | 99 | 
COc1ccc(NC(=O)CN(C)C)cc1NC(=O)NC(=O)c1cc(F)c(F)cc1Cl [Example 58] | 99 | 
CCOCC(=O)Nc1ccc(OC)c(NC(=O)NC(=O)c2cc(F)c(F)cc2Cl)c1 [Example 59] | 103 | 
C#CCC(=O)Nc1ccc(OC)c(NC(=O)NC(=O)c2cc(F)c(F)cc2Cl)c1 [Example 60] | 103 | 
COc1ccc(NC(=O)C(F)F)cc1NC(=O)NC(=O)c1cc(F)c(F)cc1Cl [Example 61] | 100 | 
COc1ccc(NC(=O)CO)cc1NC(=O)NC(=O)c1cc(F)c(F)cc1Cl [Example 62] | 101 | 
CC(=O)Nc1ccc(OC(F)(F)F)c(NC(=O)NC(=O)c2cc(F)c(F)cc2Cl)c1 [Example 64, N-{3-[3-(2-Chloro-4,5-difluorobenzoyl)ureido]-4-trifluoromethoxyphenyl}acetamide] |  | 101
COC(=O)C(=O)Nc1ccc(OC(F)(F)F)c(NC(=O)NC(=O)c2cc(F)c(F)cc2Cl)c1 [Example 65] | 98 | 

Same assay, conditions: 10 μM test substance; GPa measured in reverse direction (glycogen synthesis from glucose 1-phosphate); 10 µM

% Inhibition at 10 μM [%] | SMILES
98 | COc1ccc(NC(=O)C(C)C)cc1NC(=O)NC(=O)c1cc(F)c(F)cc1Cl [Example 43]
94 | COc1ccc(NC(=O)C(C)C)cc1NC(=O)NC(=O)c1cc(F)c(F)cc1Cl [Example 50]
